Assay results reported in patent US20250129104A1, “7H-PYRROLO[2,3-D]PYRIMIDINES AND PREPARATION AND USES THEREOF” (BioSplice Therapeutics, Inc., priority 2021, published 2025).

Biological target: recombinant DYRK1A kinase (Homo sapiens (Human), UniProt Q13627)
Experiment: DYRK1A kinase assay (Ser/Thr 18 peptide Z-lyte FRET assay)
Assay type: biochemical
Conditions: DYRK1A kinase activity; 15 μM ATP, 1 h room temperature; method text calls the value IC50
How it was run: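 FRET Z-lyte read-out (coumarin/fluorescein ratio, % phosphorylation) after 1 h development; IC50 from non-linear curve fit. Reaction: 0.25 μg/mL recombinant human DYRK1A, Ser/Thr 18 peptide 4 μM, ATP 15 μM, compound in 11-point 1:3 series from 10 μM, 1 h, room temperature, duplicate wells.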

EC50 | SMILES
2.2 nM | COc1nc(N[C@H]2CC[C@@](C)(O)CC2)nc2[nH]cc(-c3ccc4nccnc4c3)c12 [Compound 2231, cis-4-((4-Methoxy-5-(quinoxalin-6-yl)-7H-pyrrolo[2,3-d]pyrimidin-2-yl)amino)-1-methylcyclohexan-1-ol]
1.6 nM | COc1nc(N[C@H]2CC[C@](C)(O)CC2)nc2[nH]cc(-c3ccn4nccc4c3)c12 [Compound 2209, trans-4-((4-Methoxy-5-(pyrazolo[1,5-a]pyridin-5-yl)-7H-pyrrolo[2,3-d]pyrimidin-2-yl)amino)-1-methylcyclohexan-1-ol]
15 nM | C[C@]1(O)CC[C@H](Nc2ncc3c(-c4ccc5nccn5c4)c[nH]c3n2)CC1 [Compound 2236, trans-4-((5-(Imidazo[1,2-a]pyridin-6-yl)-7H-pyrrolo[2,3-d]pyrimidin-2-yl)amino)-1-methylcyclohexan-1-ol]
17.3 nM | COc1nc(N[C@@H]2CCCOC2)nc2[nH]cc(-c3ccn4nccc4c3)c12 [Compound 2314, (R)-4-Methoxy-5-(pyrazolo[1,5-a]pyridin-5-yl)-N-(tetrahydro-2H-pyran-3-yl)-7H-pyrrolo[2,3-d]pyrimidin-2-amine]
66.1 nM | CC(C)Oc1nc(N[C@H]2CC[C@@](C)(O)CC2)nc2[nH]cc(-c3ccn4nccc4c3)c12 [Compound 2220, cis-4-((4-Isopropoxy-5-(pyrazolo[1,5-a]pyridin-5-yl)-7H-pyrrolo[2,3-d]pyrimidin-2-yl)amino)-1-methylcyclohexan-1-ol]
1.1 nM | COc1nc(N[C@H]2CC[C@](C)(O)CC2)nc2[nH]cc(-c3cc(F)c4nccn4c3)c12 [Compound 2494, trans-4-((5-(8-Fluoroimidazo[1,2-a]pyridin-6-yl)-4-methoxy-7H-pyrrolo[2,3-d]pyrimidin-2-yl)amino)-1-methylcyclohexan-1-ol]
25.8 nM | CCOc1nc(N[C@H]2CC[C@@](C)(O)CC2)nc2[nH]cc(-c3ccc4nccn4c3)c12 [Compound 2254, cis-4-((4-Ethoxy-5-(imidazo[1,2-a]pyridin-6-yl)-7H-pyrrolo[2,3-d]pyrimidin-2-yl)amino)-1-methylcyclohexan-1-ol]
62.2 nM | COc1nc(NC2CCC(F)(F)CC2)nc2[nH]cc(-c3cnc4nc(C)n(CC(F)F)c4c3)c12 [Compound 2272, N-(4,4-Difluorocyclohexyl)-5-(1-(2,2-difluoroethyl)-2-methyl-1H-imidazo[4,5-b]pyridin-6-yl)-4-methoxy-7H-pyrrolo[2,3-d]pyrimidin-2-amine]
7.4 nM | COc1nc(NC2CCN(C)CC2)nc2[nH]cc(-c3ccn4nccc4c3)c12 [Compound 2216, 4-Methoxy-N-(1-methylpiperidin-4-yl)-5-(pyrazolo[1,5-a]pyridin-5-yl)-7H-pyrrolo[2,3-d]pyrimidin-2-amine]
120 nM | COc1nc(N[C@H]2CCCOC2)nc2[nH]cc(-c3ccn4nccc4c3)c12 [Compound 2315, (S)-4-Methoxy-5-(pyrazolo[1,5-a]pyridin-5-yl)-N-(tetrahydro-2H-pyran-3-yl)-7H-pyrrolo[2,3-d]pyrimidin-2-amine]

More lines, now with the values behind:

SMILES | EC50
CCOc1nc(N[C@H](C)C(F)(F)F)nc2[nH]cc(-c3cc(F)c4nccn4c3)c12 [Compound 2189, (R)-4-Ethoxy-5-(8-fluoroimidazo[1,2-a]pyridin-6-yl)-N-(1,1,1-trifluoropropan-2-yl)-7H-pyrrolo[2,3-d]pyrimidin-2-amine] | 8.1 nM
Cc1nc2ncc(-c3c[nH]c4nc(NCC(C)C)ncc34)cc2n1C(C)C [Compound 594, N-Isobutyl-5-(1-isopropyl-2-methyl-1H-imidazo[4,5-b]pyridin-6-yl)-7H-pyrrolo[2,3-d]pyrimidin-2-amine] | 5.6 nM
Cc1cn2cc(-c3c[nH]c4nc(C5CC5)ncc34)cc(F)c2n1 [Compound 233, 2-Cyclopropyl-5-(8-fluoro-2-methylimidazo[1,2-a]pyridin-6-yl)-7H-pyrrolo [2,3-d]pyrimidine] | 268 nM
COc1nc(N[C@H]2CC[C@H](OC(F)F)CC2)nc2[nH]cc(-c3ccn4nccc4c3)c12 [Compound 2308, N-(trans-4-(Difluoromethoxy)cyclohexyl)-4-methoxy-5-(pyrazolo[1,5-a]pyridin-5-yl)-7H-pyrrolo[2,3-d]pyrimidin-2-amine] | 462 nM
CC(C)(C)CNc1ncc2c(-c3ccc4nccnc4c3)c[nH]c2n1 [Compound 1911, N-Neopentyl-5-(quinoxalin-6-yl)-7H-pyrrolo[2,3-d]pyrimidin-2-amine] | 117 nM
Cc1nc2ccc(-c3c[nH]c4nc(C5CC5)ncc34)c(F)c2n1C(C)C [Compound 540, 2-Cyclopropyl-5-(7-fluoro-1-isopropyl-2-methyl-1H-benzo[d]imidazol-6-yl)-7H-pyrrolo[2,3-d]pyrimidine] | 25.5 nM
CC(C)(C)CNc1ncc2c(-c3ccc4ncccc4c3)c[nH]c2n1 [Compound 1867, N-Neopentyl-5-(quinolin-6-yl)-7H-pyrrolo[2,3-d]pyrimidin-2-amine] | 69.7 nM
[2H]C([2H])([2H])O[C@H]1CC[C@@H](Nc2ncc3c(-c4ccc5nnn(C)c5c4)c[nH]c3n2)CC1 [Compound 2172, N-(cis-4-(Methoxy-d3)cyclohexyl)-5-(1-methyl-1H-benzo[d][1,2,3]triazol-6-yl)-7H-pyrrolo[2,3-d]pyrimidin-2-amine] | 5 nM
Cn1cc(-c2ncnc3[nH]cc(-c4ccc5ncccc5c4)c23)cn1 [Compound 1897, 6-(4-(1-methyl-1H-pyrazol-4-yl)-7H-pyrrolo[2,3-d]pyrimidin-5-yl)quinoline] | 18.1 nM
COC[C@@H](C)Nc1nc(OC)c2c(-c3ccc4nnn(CC(F)F)c4c3)c[nH]c2n1 [Compound 2294, (R)-5-(1-(2,2-Difluoroethyl)-1H-benzo[d][1,2,3]triazol-6-yl)-4-methoxy-N-(1-methoxypropan-2-yl)-7H-pyrrolo[2,3-d]pyrimidin-2-amine] | 23.7 nM
CN1CCC(Nc2ncc3c(-c4ccc5nnn(C)c5c4)c[nH]c3n2)CC1 [Compound 841, 5-(1-Methyl-1H-benzo[d][1,2,3]triazol-6-yl)-N-(1-methylpiperidin-4-yl)-7H-pyrrolo[2,3-d]pyrimidin-2-amine] | 13.6 nM
COc1nc(NCC(C)(C)F)nc2[nH]cc(-c3ccc4nccn4c3)c12 [Compound 2240, N-(2-Fluoro-2-methylpropyl)-5-(imidazo[1,2-a]pyridin-6-yl)-4-methoxy-7H-pyrrolo[2,3-d]pyrimidin-2-amine] | 7.9 nM
CN1CCN(c2cc(Nc3ncc4c(-c5ccn6ncc(-c7cccnc7)c6c5)c[nH]c4n3)ccn2)CC1 [Compound 2031, N-(2-(4-methylpiperazin-1-yl)pyridin-4-yl)-5-(3-(pyridin-3-yl)pyrazolo[1,5-a]pyridin-5-yl)-7H-pyrrolo[2,3-d]pyrimidin-2-amine] | 12.8 nM
Cc1cn2nc(-c3c[nH]c4nc(NCC(C)(C)F)ncc34)ccc2n1 [Compound 995, N-(2-Fluoro-2-methylpropyl)-5-(2-methylimidazo[1,2-b]pyridazin-6-yl)-7H-pyrrolo[2,3-d]pyrimidin-2-amine] | 9.3 nM
CCOc1nc(N[C@H]2CC[C@@H](O)CC2)nc2[nH]cc(-c3ccn4nccc4c3)c12 [Compound 2219, cis-4-((4-Ethoxy-5-(pyrazolo[1,5-a]pyridin-5-yl)-7H-pyrrolo[2,3-d]pyrimidin-2-yl)amino)cyclohexan-1-ol] | 3.5 nM
OCCO[C@H]1CC[C@@H](Nc2ncc3c(-c4ccn5nccc5c4)c[nH]c3n2)CC1 [Compound 2202, 2-((cis-4-((5-(Pyrazolo[1,5-a]pyridin-5-yl)-7H-pyrrolo[2,3-d]pyrimidin-2-yl)amino)cyclohexyl)oxy)ethan-1-ol] | 3.9 nM
CCOc1nc(N[C@H](C)C(F)(F)F)nc2[nH]cc(-c3ccn4nccc4c3)c12 [Compound 2218, (R)-4-Ethoxy-5-(pyrazolo[1,5-a]pyridin-5-yl)-N-(1,1,1-trifluoropropan-2-yl)-7H-pyrrolo[2,3-d]pyrimidin-2-amine] | 12.9 nM
FC(F)CO[C@H]1CC[C@@H](Nc2ncc3c(-c4ccn5nccc5c4)c[nH]c3n2)CC1 [Compound 2201, N-(cis-4-(2,2-Difluoroethoxy)cyclohexyl)-5-(pyrazolo[1,5-a]pyridin-5-yl)-7H-pyrrolo[2,3-d]pyrimidin-2-amine] | 5 nM
Cc1nc2c(F)cc(-c3c[nH]c4nc(NCC5(F)CCCCC5)ncc34)cc2n1C(C)C [Compound 526, 5-(4-Fluoro-1-isopropyl-2-methyl-1H-benzo[d]imidazol-6-yl)-N-((1-fluorocyclohexyl)methyl)-7H-pyrrolo[2,3-d]pyrimidin-2-amine] | 8.5 nM
COc1nc(N[C@H]2CC[C@@H](OC(F)(F)F)CC2)nc2[nH]cc(-c3ccc4nccn4c3)c12 [Compound 2246, 5-(Imidazo[1,2-a]pyridin-6-yl)-4-methoxy-N-(cis-4-(trifluoromethoxy)cyclohexyl)-7H-pyrrolo[2,3-d]pyrimidin-2-amine] | 132 nM
FC(F)(F)CNc1ncc2c(-c3ccc4nccn4c3)c[nH]c2n1 [Compound 114, 5-(Imidazo[1,2-a]pyridin-6-yl)-N-(2,2,2-trifluoroethyl)-7H-pyrrolo[2,3-d]pyrimidin-2-amine] | 4.6 nM
c1cnc2sc(-c3c[nH]c4ncncc34)nc2c1 [Compound 98, 2-(7H-Pyrrolo[2,3-d]pyrimidin-5-yl)thiazolo[5,4-b]pyridine] | 22.1 nM
Cc1cnc2ccc(-c3c[nH]c4nc(NC5CCN(C)CC5)ncc34)nn12 [Compound 1057, 5-(3-Methylimidazo[1,2-b]pyridazin-6-yl)-N-(1-methylpiperidin-4-yl)-7H-pyrrolo[2,3-d]pyrimidin-2-amine] | 9.8 nM
C[C@@H](Nc1nc(OCCO)c2c(-c3ccc4nccn4c3)c[nH]c2n1)C(F)(F)F [Compound 2178, (R)-2-((5-(imidazo[1,2-a]pyridin-6-yl)-2-((1,1,1-trifluoropropan-2-yl)amino)-7H-pyrrolo[2,3-d]pyrimidin-4-yl)oxy)ethan-1-ol] | 6.8 nM
